These results are taken from patent US9714244B2, “Substituted pyrido[4,3-d]pyrimidines as Wee-1 inhibitors” (ALMAC DISCOVERY LIMITED, priority 2013, dated 2017).

Data set [1] has as its target human ether a go-go related gene (hERG) K+ channel (Homo sapiens (Human), UniProt Q12809). Description: hERG inhibition, IonWorks patch clamp electrophysiology. Particulars: 8-point curve from 11 μM. The format is cell-based. Here is the method: Compounds were tested for inhibition of the human ether a go-go related gene (hERG) K^+ channel using IonWorks patch clamp electrophysiology at Essen BioScience.
For orientation: The hERG channel carries a current that helps repolarise heart muscle cells.

The test system of data set [2] is phospho-cdc2 (Tyr15) in HT-29 cells. Description: Effect on phosphorylation of cdc2 at Tyr15 in HT-29 cells (PathScan ELISA). It is filed as cell-based. Particulars: Homo sapiens, HT-29, 8 h; HT29 cells, eight hours incubation; read-out: HT29 pCDC2 activity. Here is the method: Method 2: Determining the effect of compounds on the phosphorylation of cdc2 at Tyr15
The colorectal cancer cell lines HT-29 and HCT-116 were purchased from the ATCC and routinely maintained in McCoy's Medium (Invitrogen) supplemented with 10% Foetal Calf Serum.
The cells were trypsinised from their growing vessel and counted, 100 μL of cell suspension containing 6000 cells was pipetted into black 96 well Co-star plates and incubated overnight to allow adherence to the surface at a temperature of 37° C. and an atmosphere of 5% CO2. Test compounds were formulated in DMSO and diluted in foetal calf serum supplemented medium. Incubating medium was removed by aspiration and diluted drug supplemented medium added to each well.
The plate was returned to the incubator for an additional eight hours at 37° C. and an atmosphere of 5% CO2. Post incubation, the drug supplemented medium was aspirated from each well and the cells were washed once in ice-cold phosphate buffered saline (PBS). 100 μL of cell lysis buffer (Cell Signalling Technologies #9803) containing 20 mM Tris, 150 mM NaCl, 1 mM EDTA, 1 mM EGTA, 1% Triton-X100, 2.5 mM sodium pyrophosphate, 1 mM glycerophosphate, 1 mM Na3VO4 and 1 μg/mL leupeptin was added to each well of the 96 well plate and incubated at 4° C. for 30 min. The samples on the plate were snap frozen at −80° C. until required.
Immediately before the continuation of the assay, the sample plate was thawed and centrifuged at 4° C. for 10 min and the supernatant transferred to secondary tubes or 96 well plate.
Cell supernatant was mixed in a ratio of 1:1 with sample dilutent buffer and vortexed for one minute. 100 μL of diluted sample was pipetted into pre-coated plates containing a rabbit polyclonal antibody for phospho-cdc2 (Tyr15) (Cell Signalling Technologies PathScan kit #7176). The plate was sealed and incubated overnight at 4° C.
The plate seal was removed and the well contents aspirated, followed by 3×5 min washes with 200 μL of diluted wash buffer. Between each wash the plate was tapped firmly onto blotting paper to ensure the removal of all kit solution. 100 μL of kit detection antibody was added to each well and the plate re-sealed and incubated at 37° C. for 1 h. Post incubation the plate was washed and processed in a similar manner to that previously described.
100 μL of horseradish peroxidise-linked secondary antibody was added to each test well, the plate sealed and incubated for thirty minutes at 37° C. Post incubation, the plate was washed as previously stated, followed by the addition of 100 μL of 3,3′,5,5′ tetramethylbenzidine (TMB reagent). The plate was sealed and incubated at RT for 30 min.
100 μL of stop solution was added to each well and the underside of the plate wiped with a lint-free tissue, prior to spectrophotometric determination. Absorbance from each well was read at 450 nm within 30 min of the addition of the stop solution.
The percentage of phospho-cdc2 was calculated compared to DMSO control and plotted versus the concentration of inhibitor using GraphPad Prism. Data was fitted using non-linear regression analysis and IC50 values generated.
In general terms: ELISA stands for enzyme-linked immunosorbent assay.

Data set [3] is described as follows: CLint estimates using human liver microsomes. It is filed as in vitro ADME. Conditions: pH 7.4, read-out: HLM activity (HLM CLint). Here is the method:
Method for the Determination of CLint Estimates Using Human Liver Microsomes
Test compounds (final concentration=1 μM; final DMSO concentration=0.1%) were incubated in 0.1M phosphate buffer pH 7.4 with human liver microsomes (0.5 mg of protein/mL) at 37° C. Reactions were started by addition of NADPH in 0.1M phosphate buffer pH 7.4 (final concentration 1 mM). 40 μL aliquots were removed at 2, 5, 10, 15, 20, 30, 40 and 50 min. Reactions were quenched in 80 μL of ice-cold methanol. Samples were subsequently frozen overnight then centrifuged at 3500 rpm for 20 min at 4° C. The supernatants were removed and transferred into analytical plates and analysed by LC/MS/MS.
All samples were analysed on a Waters Acquity I-Class coupled to a Waters Xevo TQD mass spectrometer. A Waters BEH C18 2.1×50 mm 1.7 μm column was used and mobile phases were water and methanol containing 0.1% formic acid as modifier. Analysis was by multiple reaction monitoring and conditions were optimised for each test compound.
From a plot of ln peak area against time, the gradient of the line is determined. Subsequently, half-life and intrinsic clearance are calculated using the following equations.

In the next data set the target is Wee-1 kinase (Homo sapiens (Human), UniProt P30291). Description: Measurement of Wee-1 kinase activity (ADP-Glo). It is filed as biochemical. On the procedure:
Method 1: Measurement of Wee-1 kinase activity
In the measurement of Wee-1 activity, a commercial peptide Poly(Lys Tyr(4:1)) hydrobromide was purchased from Sigma Aldrich and used as the substrate. Activated Wee-1 kinase was purchased from Invitrogen (PV3817) and an ADP-Glo luminescent kit was purchased from Promega.
All reactions took place in […] volumes in reaction buffer containing 40 mM Tris-HCl and 20 mM magnesium chloride, supplemented with 0.1 mg/mL bovine serum albumin and 2 mM DTT. Compounds were serially diluted in buffer and 5 μL of each concentration pipetted into a white 384 well plate (Sigma Aldrich M6186). A 5 μL aliquot of the Wee-1 enzyme was added to each well and the plate centrifuged for 1 min to ensure mixing of the enzyme and inhibitor.
The plate was incubated at room temperature for 30 minutes before the addition of 2.0 μg/mL of substrate and 30 μM ATP in a 5 μL aliquot. The plate was centrifuged for one minute and incubated for 1 h at RT.
15 μL of ADP-Glo stop reagent was added to each well to quench the reaction and deplete unconverted ATP. The plate was incubated for a further 40 min in the dark at RT.
30 μL of ADP-Glo kinase detection reagent was added to each well, converting ADP to ATP, catalysing the generation of luciferin by luciferase. The plate was shaken for 1 min, and incubated in the dark for an additional hour.
Luminescence from each well was detected using the Biotek Synergy4 HD plate reader and the percentage inhibition of kinase activity calculated for each inhibitor tested. Positive (kinase only) and negative (no kinase) controls were added to each plate to ensure specific interaction of kinase and inhibitor. The IC50 concentration for each inhibitor was calculated by plotting the percentage kinase inhibition against concentration of inhibitor and the curve generated by non-linear regression fitting.

A short description of data set [4]: Rat hepatocyte assay CLint. The format is in vitro ADME. Conditions: hepatocytes. On the procedure:
(§1) Compounds of the present invention have good stability in human and/or rat hepatocyte incubations. In particular, representative examples 7, 8, 13, 18, 20 have CLint of <20 μL/min/10^6 cells in a human hepatocyte assay and/or <40 μL/min/10^6 cells in a rat hepatocyte assay.

Data set [5] is described as follows: Human hepatocyte assay CLint. It is filed as in vitro ADME. Particulars: hepatocytes. On the procedure:
as §1

Data set [6] is described as follows: Oral bioavailability in rat. Particulars: in vivo. The text has this: Compounds of the present invention are orally bioavailable.

The structures appear in SMILES notation. Structures can show the parent of a compound that is named as a salt. Where two headings read alike, the source gives them in different places.

Sequence of human ether a go-go related gene (hERG) K+ channel (Q12809 whole entry): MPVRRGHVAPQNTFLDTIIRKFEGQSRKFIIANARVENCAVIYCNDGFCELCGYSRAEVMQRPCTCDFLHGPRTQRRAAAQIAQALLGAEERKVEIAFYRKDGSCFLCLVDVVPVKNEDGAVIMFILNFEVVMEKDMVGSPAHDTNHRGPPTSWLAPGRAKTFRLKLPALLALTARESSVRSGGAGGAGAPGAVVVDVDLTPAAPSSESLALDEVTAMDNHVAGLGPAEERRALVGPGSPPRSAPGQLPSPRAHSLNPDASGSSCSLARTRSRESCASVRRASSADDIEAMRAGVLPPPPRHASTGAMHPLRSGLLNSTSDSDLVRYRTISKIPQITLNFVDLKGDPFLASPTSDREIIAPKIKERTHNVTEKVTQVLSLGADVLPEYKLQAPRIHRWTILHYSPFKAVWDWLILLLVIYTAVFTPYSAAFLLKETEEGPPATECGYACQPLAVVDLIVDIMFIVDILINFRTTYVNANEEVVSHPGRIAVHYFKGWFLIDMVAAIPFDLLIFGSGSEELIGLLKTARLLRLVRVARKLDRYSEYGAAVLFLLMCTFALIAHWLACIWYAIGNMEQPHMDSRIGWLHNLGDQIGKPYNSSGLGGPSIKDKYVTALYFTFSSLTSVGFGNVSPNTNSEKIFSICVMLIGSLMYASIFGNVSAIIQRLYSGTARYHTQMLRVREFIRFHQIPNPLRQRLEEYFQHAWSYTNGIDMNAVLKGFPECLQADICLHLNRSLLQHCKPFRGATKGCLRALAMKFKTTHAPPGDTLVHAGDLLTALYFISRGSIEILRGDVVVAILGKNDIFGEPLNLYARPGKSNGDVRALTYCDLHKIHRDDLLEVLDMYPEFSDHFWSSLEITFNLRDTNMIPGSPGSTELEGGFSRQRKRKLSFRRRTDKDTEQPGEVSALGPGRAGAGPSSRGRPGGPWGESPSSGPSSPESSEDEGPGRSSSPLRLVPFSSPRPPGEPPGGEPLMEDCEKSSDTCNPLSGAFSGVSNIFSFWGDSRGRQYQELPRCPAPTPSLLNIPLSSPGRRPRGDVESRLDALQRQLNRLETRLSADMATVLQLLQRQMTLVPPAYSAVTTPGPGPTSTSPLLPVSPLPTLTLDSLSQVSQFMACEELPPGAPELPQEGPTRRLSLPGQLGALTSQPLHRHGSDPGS
Sequence of Wee-1 kinase (P30291 whole entry): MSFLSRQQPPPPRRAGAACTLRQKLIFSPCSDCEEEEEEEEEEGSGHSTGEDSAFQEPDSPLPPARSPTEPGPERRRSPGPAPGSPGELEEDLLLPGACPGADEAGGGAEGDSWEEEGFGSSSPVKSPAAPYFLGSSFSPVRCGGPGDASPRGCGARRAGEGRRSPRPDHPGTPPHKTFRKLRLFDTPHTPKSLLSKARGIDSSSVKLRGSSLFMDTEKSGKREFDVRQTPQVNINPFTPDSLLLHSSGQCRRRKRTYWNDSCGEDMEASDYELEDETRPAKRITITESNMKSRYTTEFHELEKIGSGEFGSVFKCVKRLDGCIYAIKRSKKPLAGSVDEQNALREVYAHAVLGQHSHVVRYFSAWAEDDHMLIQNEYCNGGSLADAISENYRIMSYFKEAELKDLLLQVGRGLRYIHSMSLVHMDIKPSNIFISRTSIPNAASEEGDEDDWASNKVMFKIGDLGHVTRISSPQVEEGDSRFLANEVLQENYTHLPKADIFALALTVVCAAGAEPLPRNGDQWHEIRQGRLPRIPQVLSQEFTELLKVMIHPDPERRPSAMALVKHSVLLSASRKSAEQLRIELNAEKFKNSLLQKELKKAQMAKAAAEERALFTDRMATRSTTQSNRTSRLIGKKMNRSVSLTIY

In the case of `O=c1c2cnc(Nc3ccc(N4CCOCC4)cc3)nc2ccn1-c1c(Cl)cccc1Cl` [Example 19, 6-(2,6-Dichlorophenyl)-2-((4-morpholinophenyl)amino)pyrido[4,3-d]pyrimidin-5(6H)-one], the IC50 is not below 10000 nM in data set [1], not below 1000 nM in data set [2] and 10 to 200 nM at Wee-1 kinase. Also, the microsomal CLint at 1 μM in data set [3] was more than 20 µL/min/mg.
`CN(C)CCc1ccc(Nc2ncc3c(=O)n(-c4c(Cl)cccc4Cl)ccc3n2)cc1` [Example 11, 6-(2,6-Dichlorophenyl)-2-((4-(2-(dimethylamino)ethyl)phenyl)amino)pyrido[4,3-d]pyrimidin-5(6H)-one, HCl]: the figures for the IC50 (in data set [1]; in data set [2]; on Wee-1 kinase (read-out: Wee-1 IC50 activity)) were 1000 to 10000 nM, 100 to 1000 nM and 10 to 200 nM, respectively. The microsomal CLint at 1 μM in data set [3] is more than 20 µL/min/mg.
On to `O=c1c2cnc(Nc3ccc(N4CCNCC4)c(CO)c3)nc2ccn1-c1c(Cl)cccc1Cl` [Example 18, 6-(2,6-Dichlorophenyl)-2-((3-(hydroxymethyl)-4-(piperazin-1-yl)phenyl)amino)pyrido[4,3-d]pyrimidin-5(6H)-one], for which the IC50 in data set [1] is not below 10000 nM; in data set [2] it was not above 100 nM; on Wee-1 kinase (read-out: Wee-1 IC50 activity) it was less than 10 nM. The hepatocyte CLint (commonly the capacity of the preparation to metabolise the compound, expressed as a volume cleared per time) was less than 40 µL/min/1e6 cells in data set [4] and less than 20 µL/min/1e6 cells in data set [5]. Further, in data set [3], the microsomal CLint at 1 μM was not above 20 µL/min/mg.
As for `Cc1cc(Nc2ncc3c(=O)n(-c4c(Cl)cccc4Cl)ccc3n2)ccc1N1CCNCC1` [Example 7, 6-(2,6-Dichlorophenyl)-2-((3-methyl-4-(piperazin-1-yl)phenyl)amino)pyrido[4,3-d]pyrimidin-5(6H)-one], the values for the IC50 (in data set [1]; in data set [2]; at Wee-1 kinase (read-out: Wee-1 IC50 activity)) were 1000 to 10000 nM, not above 100 nM and less than 10 nM, respectively. Further, the hepatocyte CLint in data set [4] is less than 40 µL/min/1e6 cells; in data set [5] it was less than 20 µL/min/1e6 cells. Besides, the microsomal CLint at 1 μM in data set [3] is not above 20 µL/min/mg. The bioavailability (as a rule, dose-corrected exposure relative to a reference, in per cent) in data set [6] was more than 25%.
On to `COc1cc(Nc2ncc3c(=O)n(-c4c(Cl)cccc4Cl)ccc3n2)ccc1N1CCN(C)CC1` [Example 12, 6-(2,6-Dichlorophenyl)-2-((3-methoxy-4-(4-methylpiperazin-1-yl)phenyl)amino)pyrido[4,3-d]pyrimidin-5(6H)-one, HCl], for which the IC50 is 1000 to 10000 nM in data set [1], not above 100 nM in data set [2] and 10 to 200 nM at Wee-1 kinase. Further, in data set [3], the microsomal CLint at 1 μM was more than 20 µL/min/mg.
`CC(C)N1CCN(c2ccc(Nc3ncc4c(=O)n(-c5c(Cl)cccc5Cl)ccc4n3)cc2)CC1` [Example 17, 6-(2,6-Dichlorophenyl)-2-((4-(4-isopropylpiperazin-1-yl)phenyl)amino)pyrido[4,3-d]pyrimidin-5(6H)-one]: the IC50 in data set [1] lay in the range of 1000 to 10000 nM; in data set [2] it was 100 to 1000 nM; on Wee-1 kinase (read-out: Wee-1 IC50 activity), 10 to 200 nM. In addition, the microsomal CLint at 1 μM in data set [3] was more than 20 µL/min/mg.
For `O=c1c2cnc(Nc3ccc(N4CCN(CCO)CC4)cc3)nc2ccn1-c1c(Cl)cccc1Cl` [Example 21, 6-(2,6-Dichlorophenyl)-2-((4-(4-(2-hydroxyethyl)piperazin-1-yl)phenyl)amino)pyrido[4,3-d]pyrimidin-5(6H)-one], the IC50 is not above 100 nM in data set [2] and less than 10 nM at Wee-1 kinase (read-out: Wee-1 IC50 activity). Moreover, the microsomal CLint at 1 μM in data set [3] was more than 20 µL/min/mg.
Regarding `CNCCOc1ccc(Nc2ncc3c(=O)n(-c4c(Cl)cccc4Cl)ccc3n2)cc1` [Example 16, 6-(2,6-Dichlorophenyl)-2-((4-(2-(methylamino)ethoxy)phenyl)amino)pyrido[4,3-d]pyrimidin-5(6H)-one, HCl], the IC50 in data set [1] was not below 10000 nM; in data set [2] it was 100 to 1000 nM; at Wee-1 kinase, 10 to 200 nM. Moreover, in data set [3], the microsomal CLint at 1 μM was not above 20 µL/min/mg.
As to `CN1CCN(c2ccc(Nc3ncc4c(=O)n(-c5c(Cl)cccc5Cl)ccc4n3)cc2CO)CC1` [Example 8, 6-(2,6-Dichlorophenyl)-2-((3-(hydroxymethyl)-4-(4-methylpiperazin-1-yl)phenyl)amino)pyrido[4,3-d]pyrimidin-5(6H)-one], the figures for the hepatocyte CLint in data set [4] and in data set [5] were less than 40 µL/min/1e6 cells and less than 20 µL/min/1e6 cells, respectively. In addition, the IC50 is 100 to 1000 nM in data set [2] and less than 10 nM at Wee-1 kinase (read-out: Wee-1 IC50 activity). For the same compound, in data set [3], the microsomal CLint at 1 μM was not above 20 µL/min/mg.
Turning to `CN1CCC(c2ccc(Nc3ncc4c(=O)n(-c5c(Cl)cccc5Cl)ccc4n3)cc2)CC1` [Example 10, 6-(2,6-Dichlorophenyl)-2-((4-(1-methylpiperidin-4-yl)phenyl)amino)pyrido[4,3-d]pyrimidin-5(6H)-one, HCl], the IC50 in data set [1] was 1000 to 10000 nM; in data set [2], 100 to 1000 nM; at Wee-1 kinase (read-out: Wee-1 IC50 activity), less than 10 nM. The microsomal CLint at 1 μM in data set [3] was not above 20 µL/min/mg.
`O=c1c2cnc(Nc3ccc(N4CCNCC4)c(Cl)c3)nc2ccn1-c1c(Cl)cccc1Cl` [Example 27, 2-((3-Chloro-4-(piperazin-1-yl)phenyl)amino)-6-(2,6-dichlorophenyl)pyrido[4,3-d]pyrimidin-5(6H)-one]: the values for the IC50 (in data set [2]; on Wee-1 kinase (read-out: Wee-1 IC50 activity)) were 100 to 1000 nM and less than 10 nM, respectively. In addition, in data set [3], the microsomal CLint at 1 μM is not above 20 µL/min/mg.
Consider `Cc1cn(-c2c(Cl)cccc2Cl)c(=O)c2cnc(Nc3ccc(N4CCNCC4)cc3)nc12` [Example 2, 6-(2,6-Dichlorophenyl)-8-methyl-2-((4-(piperazin-1-yl)phenyl)amino)pyrido[4,3-d]pyrimidin-5(6H)-one], for which the IC50 was not below 10000 nM in data set [1], 100 to 1000 nM in data set [2] and less than 10 nM at Wee-1 kinase (read-out: Wee-1 IC50 activity). The microsomal CLint at 1 μM in data set [3] is not above 20 µL/min/mg.
